Data as given in patent US20210386791A1, “METHODS OF CELLULAR REPROGRAMMING” (TissueTech, Inc., priority 2018, published 2021).

What was measured:
Type in all cases: cell-based
[1] = system: human corneal fibroblasts (HCF); assay: Timing course analysis of SDF1/CXCR4 and BMP signaling in HCF
[2] = system: P10 LNC (human limbal niche cells); assay: P10 LNC on coated MG with soluble HC-HA/PTX3 with or without AMD3100, LDN-193189 or BMP receptor siRNAs; conditions: for upregulation of CXCR4 transcript by soluble HC-HA/PTX3: with CXCR4 inhibitor
Protocol: Upon 80% confluence, P10 LNC cultured on coated Matrigel™ (MG) were pre-treated with 0.1% DMSO with or without 20 μg/mL AMD3100 or 100 nM LDN-193189 for 30 min before being trypsinized and seeded at 2×10^5/mL on coated MG in MESCM containing 20 μg/mL of AMD3100 or 100 nM LDN-193189 with 25 μg/mL soluble HC-HA/PTX3 for another 48 h. For the siRNA knockdown, 80% confluent P10 LNC on 6-well coated MG were subjected to transfection by mixing 200 μl of serum-free, antibiotic-free MESCM with 4 μL of HiPerFect siRNA transfection reagent (final dilution, 1:300) and 6 μl of 20 μM of scRNA or siRNAs for BMPR1A, BMPR1B, BMPR2, and ACVR1 at the final concentration of 100 nM, drop-wise, followed by culturing in 1 mL of fresh MESCM at 37° C. for 24 h before soluble HC-HA/PTX3 was added at a final concentration of 25 μg/mL in the MESCM medium.
RNA extract was reverse transcribed to cDNA with reverse-transcribed using High Capacity Reverse Transcription Kit (Applied Biosystems, Foster City, Calif.) using primers listed in Supplementary Table S3. The resultant cDNAs were amplified by specific TaqMan gene expression assay mix and universal PCR master mix in QuantStudio™ 5 Real Time PCR System (ThermoFisher, Santa Clara, Calif.) with real-time RT-PCR profile consisting of 10 min of initial activation at 95° C., followed by 40 cycles of 15 sec denaturation at 95° C., and 1 min annealing and extension at 60° C. The relative gene expression data were analyzed by the comparative CT method (MET). All assays were performed in triplicate. The results were normalized by glyceraldehyde 3-phosphate dehydrogenase (GAPDH) as an internal control.
Single cells of LNC at different passages were harvested with 0.05% trypsin and 1 mM EDTA at 37° C. for 10 min and prepared for cytospin using Cytofuge (StatSpin Inc., Norwood, Mass.) at 1000 rpm for 8 min. Cells were fixed with 4% formaldehyde, pH 7.0, for 15 min at room temperature, permeabilized with 0.2% Triton X-100 in PBS for 15 min and blocked with 2% bovine serum albumin (BSA) for 1 h before incubated with primary antibodies for 16 h at 4° C. After 3 washes with PBS, the corresponding Alexa Fluor-conjugated secondary IgG (all 1:100 dilution) were incubated for 60 min and 3 washing with PBS. After 3 washes with PBS, the second primary antibodies was incubated for 60 min and followed with the corresponding Alex Fluor-conjugated secondary IgG. The nucleus was counterstained with Hoechst 33342 before being analyzed with Zeiss LSM 700 confocal microscope (Carl Zeiss, Thornwood, N.Y.). Corresponding mouse and rabbit sera were used as negative controls for primary monoclonal and polyclonal antibodies, respectively.

[3] = system: human corneal fibroblasts (HCF); assay: Reversal of HCF to keratocytes on immobilized HC-HA/PTX3 with or without SB431542 or AMD3100
Protocol: A total of 86 human corneas from individuals aged 18-76 years and maintained at 4° C. in Optisol (Chiron Vision, Irvine, Calif.) for less than 7 days after death were obtained from the Florida Lions Eye Bank (Miami, Fla.) and handled according to the declaration of Helsinki. HCF were isolated and cultured. Briefly, the sheets of the epithelium and the endothelium were removed from corneas, the stroma sections were cut into cubes of approximately 1 mm3, incubated in 2 mg/ml collagenase for 16 h at 37° C., and then placed in a culture medium consisting of DMEM supplemented with 10% fetal bovine serum containing […]. The culture medium was refreshed twice a week. The cells cultured to passage 3 were used for all experiments. To reverse fibroblasts or myofibroblasts into keratocytes, fibroblasts or myofibroblasts were cultured on immobilized HC-HA/PTX3 in DMEM+10% FBS for 3 days using the samples from the cells on plastic and HA as the controls. Some of the cell cultures were extended to up to 7 days of culture to monitor the expression of α-SMA formation. Total RNAs were extracted using RNeasy Mini Kit (Qiagen) and reverse-transcribed using High Capacity Reverse Transcription Kit (Applied Biosystems). cDNA was amplified by real-time RT-PCR using specific primer-probe mixtures and DNA polymerase in Quant Studio 5 Real-time PCR System (Applied Biosystems). Real-time RT-PCR profile consisted of 10 min of initial activation at 95° C., followed by 40 cycles of 15 s denaturation at 95° C., and 1 min annealing and extension at 60° C. The genuine identity of each PCR product was confirmed by the size determination using 2% agarose gels followed by ethidium bromide staining together with PCR marker according to EC3 Imaging System (BioImaging System, Upland, Calif.). The samples of human corneal fibroblasts, myofibroblasts and corneal keratocytes were air-dried and fixed in 4% formaldehyde, pH 7.0, for 15 min at room temperature, rehydrated in PBS, incubated with 0.2% Triton X-100 for 15 min, and rinsed 3 times with PBS for 5 min each. […] After three washes with PBS, they were incubated with corresponding Alexa-Fluor-conjugated secondary IgG (all 1:100 dilution) for 60 min. The samples were then counterstained with Hoechst 33342 and analyzed in Zeiss LSM 700 confocal microscope (Thornhood, N.Y.). Corresponding mouse and rabbit sera were used as negative controls for primary monoclonal and polyclonal antibodies, respectively. Cell lysates were prepared in RIPA buffer and resolved on 4-15% (w/v) gradient acrylamide gels under denaturing and reducing conditions for Western blotting. The protein extracts were transferred to the nitrocellulose membrane, which was then blocked with 5% (w/v) fat-free milk in TBST [50 mM Tris-HCl, pH 7.5, 150 mM NaCl, 0.05% (v/v) Tween-20], followed by sequential incubation with the specific primary antibody against keratocan and its respective horseradish peroxidase (HRP)-conjugated secondary antibody using β-actin as the loading control. Immunoreactive proteins were detected with Western Lighting Chemiluminescence (PerkinElmer, Waltham, Mass.).

[4] = system: human corneal fibroblasts (HCF); assay: P3 HCF on plastic with or without immobilized HA or HC-HA/PTX3, with or without TGFβ1: mRNA, ELISA, Western blot, immunostaining; conditions: with TGFβ1
Protocol: A total of 89 human corneas from individuals aged 18-76 years and maintained at 4° C. in Optisol (Chiron Vision, Irvine, Calif.) for less than 7 days after death were obtained from the Florida Lions Eye Bank (Miami, Fla.) and handled according to the declaration of Helsinki. HCF were isolated and cultured. Epithelial and endothelial cells were removed from corneas, the stroma was cut into cubes of approximately 1 mm^3, incubated in 2 mg/ml collagenase for 16 h at 37° C., and then placed in a culture medium consisting of Dulbecco's modified Eagle's medium (DMEM) supplemented with 10% fetal bovine serum containing […]. The culture medium was changed twice a week. The morphology of the cells was monitored by Nikon Eclipse TS 100 microscope (Melville, N.Y.). Cells cultured to passage 3 (P3) were used for all experiments.
Human corneal fibroblasts (P3) were seeded on plastics with or without immobilized HC-HA/PTX3 complex for 72 h in DMEM+10% FBS, then serum starved for 24 h and treated with or without TGFβ1 for 24 h before being harvested for mRNA quantitation or immunostaining. For determination of protein of TGFβ receptor or p75NTR, the cells were treated with or without TGF-β1 for 48 h before collection of protein samples because the protein expression lags behind mRNA expression. For TGF-β1 ELISA, the cells were treated with or without TGF-β1 for 24 h, and then cultured in the fresh medium for another 24 h. The supernatants were collected for TGFβ1 ELISA. For TGFβ2 and TGFβ3 ELISA, the cells were treated with or without TGFβ1 for 48 h. Certain HCF were seeded on glass in DMEM+10% FBS for 24 h, then in DMEM+ITS (insulin-transferrin-selenium) for 24 h, treated with/without PBS or hyaluronic acid (HA) or HC-HA/PTX3±TGFβ1 (10 ng/ml)±Marimastat (10 μM) or ±DAPT (10 μM) or ±both for 0, 5, 15, 30 and 45 minutes before being harvested for immunostaining of CD44-ICD, JNK1, Cyclin D1 and p75NTR and for 5 minutes before being harvested for Western blotting of cytoplasmic and nuclear CD44-ICD, active MT1-MMP, and active γ-secretase after compartmental separation of the cellular components.
Total RNAs were extracted using RNeasy Mini Kit and were reverse transcribed using High Capacity Reverse Transcription Kit (Applied Biosystems). cDNA obtained was amplified by real-time RT-PCR using specific primer-probe mixtures and DNA polymerase in 7000 Real-time PCR System (Thermo-Fisher Scientific, Carlsbad, Calif.). Real-time RT-PCR profile consisted of 10 minutes of initial activation at 95° C., followed by 40 cycles of 15 seconds denaturation at 95° C., and 1 min annealing and 1 min extension at 60° C. The genuine identity of each PCR product was confirmed by the size determination using 2% agarose gels followed by ethidium bromide staining together with PCR marker according to EC3 Imaging System (BioImaging System, Upland, Calif.).
The Quantikine Human ELISA Kits of TGFβs were used for determination of TGFβs following the manufacturer's instructions (R and D Systems, Minneapolis, Minn.).
HCF, induced human corneal endothelial cells (HCEC), and HCEC monolayer cultures were air-dried and fixed in 4% formaldehyde, pH 7.0, for 15 min at room temperature, rehydrated in PBS, incubated with 0.2% Triton X-100 for 15 min, and rinsed three times with PBS for 5 min each. After incubation with 2% BSA to block non-specific staining for 30 min, they were incubated with the desired first antibody (all at 1:50 dilution) for 16 h at 4° C. After three washes with PBS, they were incubated with corresponding Alexa-Fluor-conjugated secondary IgG (all 1:100 dilutions) for 60 min. The samples were then counterstained with Hoechst 33342 and analyzed with Zeiss LSM 700 confocal microscope (Thornhood, N.Y.). Corresponding mouse and rabbit sera were used as negative controls for primary monoclonal and polyclonal antibodies, respectively. […]

[5] = soluble HC-HA/PTX3 with AMD3100
[6] = HCF on HC-HA/PTX3 with CXCR4 inhibitor

In the case of `c1cc(CN2CCCNCCNCCCNCC2)ccc1CN1CCCNCCNCCCNCC1` [AMD3100], the “aggregation and expression of SDF1, CXCR4, BMP4 and BMP6 induced by HC-HA/PTX3” value ([1]; with AMD3100) is reported as “completely blocked”, the “nuclear translocation of CXCR4 and pSMAD1/5” value ([1]; with AMD3100) is reported as “eliminated” and the “immunostaining of SDF-1” value ([2]; after addition of AMD3100) is reported as “became negative”. For the same compound, the “Pax6, p75NTR, NGF, Musashi-1, Msx-1 and FoxD3 transcripts” value [2, 5] was “significant downregulation”, the “immunofluorescence staining pattern of CXCR4” value [2, 5] was “reverted to that of 3D MG” and the “staining of pSmad1/5/8” value [2, 5] was “deactivated to cytoplasmic staining”. For the same compound, the “transcript levels of BMP2, BMP4 and BMP6” value ([2]; soluble HC-HA/PTX3 with AMD3100, throughout 48 h) was “aborted”, the “nuclear Pax6 staining promoted by soluble HC-HA/PTX3” value ([2]; with AMD3100) was “aborted” and the “cell aggregation promoted by soluble HC-HA/PTX3” value ([2]; with AMD3100 20 μg/mL, 60 min) was “completed aborted”. For the same compound, the “upregulation of SDF-1 transcript by soluble HC-HA/PTX3” value ([2]; with AMD3100, 24 h) was “completely abolished”, the “upregulation of CXCR4 transcript by soluble HC-HA/PTX3” value ([2]; 24 h) was “significantly downregulated” and the “upregulation of CXCR4 transcript by soluble HC-HA/PTX3” value ([2]; 48 h) was “completely aborted”. The “cell aggregation, mRNA overexpression of SDF1 and CXCR4, CXCR4 nuclear translocation” value [3, 6] was “completely attenuated”, the keratocan protein expression [3, 6] was “blockade” and the “transcript expression of BMP4, BMP6, BMPR1A, BMPR1B, BMPR2 and nuclear translocation of pSMAD1/5” value [3, 6] was “completely nullified”.

In the case of `c1ccc2c(-c3cnn4cc(-c5ccc(N6CCNCC6)cc5)cnc34)ccnc2c1` [LDN-193189], the “transient nuclear translocation of CXCR4 and nuclear Pax6 staining” value ([2]; BMP signaling suppressed) is reported as “not affected”, the “cell aggregation by soluble HC-HA/PTX3” value ([2]; BMP signaling suppressed, compared to scRNA control) is reported as “not affect” and the “expression level of CXCR4 and SDF-1” value ([2]; BMP signaling suppressed, throughout 48 h) is reported as “no significant difference”.

With `NC(=O)c1ccc(-c2nc(-c3ccc4c(c3)OCO4)c(-c3ccccn3)[nH]2)cc1` [SB431542] the “aggregation, expression of SDF1 and CXCR4 and nuclear translocation of CXCR4” value ([1]; HC-HA/PTX3 with SB431542) was “did not affect”, the “expression of BMP4 and BMP6 and nuclear translocation of pSMAD1/5 induced by HC-HA/PTX3” value ([1]; with SB431542) was “completely inhibited” and the “BMP signaling and keratocan mRNA and protein expression” value ([3]; HCF on HC-HA/PTX3 with BMP inhibitor) was “completely inhibited”.

For “TGFβ1: exogenous transforming growth factor β1, 10 ng/ml challenge”, the “NC marker mRNA, p75NTR protein and p75NTR nuclear translocation” value [4] was “upregulated on plastic”.
